Our source for the EDmin and IC50 values is ChEMBL document CHEMBL1125250 (J Med Chem, 1991).

For one data set, the target named is T1, Aromatase (Rattus norvegicus, UniProt P22443).
T1 sequence (P22443 whole entry): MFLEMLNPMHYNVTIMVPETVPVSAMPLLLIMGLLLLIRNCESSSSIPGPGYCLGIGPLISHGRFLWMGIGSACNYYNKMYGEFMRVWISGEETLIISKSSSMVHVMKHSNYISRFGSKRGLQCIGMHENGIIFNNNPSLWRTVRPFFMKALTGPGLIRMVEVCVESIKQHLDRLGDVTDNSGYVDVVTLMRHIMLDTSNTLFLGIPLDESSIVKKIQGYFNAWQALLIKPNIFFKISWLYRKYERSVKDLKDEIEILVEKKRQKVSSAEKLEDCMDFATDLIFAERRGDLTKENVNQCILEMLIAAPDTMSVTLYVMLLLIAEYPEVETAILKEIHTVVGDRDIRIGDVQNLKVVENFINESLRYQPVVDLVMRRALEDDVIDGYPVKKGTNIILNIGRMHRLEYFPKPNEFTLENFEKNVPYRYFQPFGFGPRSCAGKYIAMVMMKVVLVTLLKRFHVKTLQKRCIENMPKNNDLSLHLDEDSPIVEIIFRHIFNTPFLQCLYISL

For data set [1], the target named is T2, Cholesterol side-chain cleavage enzyme, mitochondrial (Homo sapiens, UniProt P05108).
T2 sequence (P05108 whole entry): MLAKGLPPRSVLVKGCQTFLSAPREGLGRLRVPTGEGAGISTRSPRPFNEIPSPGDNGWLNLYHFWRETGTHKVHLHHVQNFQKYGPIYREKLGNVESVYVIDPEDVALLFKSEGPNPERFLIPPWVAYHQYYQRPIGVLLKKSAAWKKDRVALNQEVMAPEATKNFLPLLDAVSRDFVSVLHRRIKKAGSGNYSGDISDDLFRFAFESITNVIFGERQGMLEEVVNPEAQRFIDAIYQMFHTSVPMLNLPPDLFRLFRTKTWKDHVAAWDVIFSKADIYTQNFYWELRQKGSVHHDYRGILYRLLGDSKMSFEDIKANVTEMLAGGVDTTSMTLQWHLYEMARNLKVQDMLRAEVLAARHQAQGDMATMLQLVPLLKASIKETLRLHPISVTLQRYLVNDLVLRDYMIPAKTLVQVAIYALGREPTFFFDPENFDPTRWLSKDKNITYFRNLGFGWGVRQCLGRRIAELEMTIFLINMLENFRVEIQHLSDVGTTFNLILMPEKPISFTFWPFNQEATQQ
Format: functional, Cricetulus griseus.

For `CCOC(=O)c1ccc(C2CCCc3cncn32)cc1.Cl` (centres undefined), the EDmin on Aromatase is above 10 µM/kg. In general, IC50 refers to the concentration at which inhibition is half-maximal. Low values mean higher potency, high ones lower potency. In data set [1], `CCC1(c2ccc(N)cc2)CCC(=O)NC1=O` (centres undefined) [AMINOGLUTETHIMIDE] yielded an IC50 of 80 µM. For `OCc1ccc(C2CCCc3cncn32)cc1` (centres undefined), the EDmin at Aromatase was 0.5 µM/kg. In turn, `Brc1ccc(C2CCCc3cncn32)cc1.Cl` (centres undefined) showed an EDmin at Aromatase of 0.5 µM/kg.
